Results reported in the supplement of paper PMC11579375.

Legend:
Assay in all cases: area under the viability dose-response curve (AUC) (AUC (arbitrary units, max 500 = no viability loss)); higher = less sensitive (higher viability)
Settings in all cases: exposure time: 120 h; concentration range: 0.1 nM - 10 µM, 6 doses
10F2 = test system: 10F2 (fetal-II hepatoblastoma organoid with high liver markers)
Method: (§1)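 Patient-derived hepatoblastoma tumor organoids (about 50 organoids per well, 384-well plates, medium with 5% BME) were treated with the PMC pediatric cancer drug library. Each drug was tested in duplicate at 6 concentrations (0.1 nM to 10 µM, 10-fold steps).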

135F2 = test system: 135F2 (fetal-II hepatoblastoma organoid with high liver markers)
Method: as §1

13E = test system: 13E (embryonal-type hepatoblastoma organoid)
Method: as §1

13F2 = test system: 13F2 (fetal-II hepatoblastoma organoid with high liver markers)
Method: as §1

17E = test system: 17E (embryonal-type hepatoblastoma organoid)
Method: as §1

17F1 = test system: 17F1 (fetal-I hepatoblastoma organoid with intermediate liver markers)
Method: as §1

22E = test system: 22E (embryonal-type hepatoblastoma organoid)
Method: as §1

27F1 = test system: 27F1 (fetal-I hepatoblastoma organoid with intermediate liver markers)
Method: as §1

3E = test system: 3E (embryonal-type hepatoblastoma organoid)
Method: as §1

8F1 = test system: 8F1 (fetal-I hepatoblastoma organoid with intermediate liver markers)
Method: as §1

96F1 = test system: 96F1 (fetal-I hepatoblastoma organoid with intermediate liver markers)
Method: as §1

Compound	area under the viability dose-response curve (10F2)	area under the viability dose-response curve (135F2)	area under the viability dose-response curve (13E)	area under the viability dose-response curve (13F2)	area under the viability dose-response curve (17E)	area under the viability dose-response curve (17F1)	area under the viability dose-response curve (22E)	area under the viability dose-response curve (27F1)	area under the viability dose-response curve (3E)	area under the viability dose-response curve (8F1)	area under the viability dose-response curve (96F1)
CO[C@H]1C[C@@H]2CC[C@@H](C)[C@@](O)(O2)C(=O)C(=O)N2CCCC[C@H]2C(=O)O[C@H]([C@H](C)C[C@@H]2CC[C@@H](OCCO)[C@H](OC)C2)CC(=O)[C@H](C)/C=C(\C)[C@@H](O)[C@@H](OC)C(=O)[C@H](C)C[C@H](C)/C=C/C=C/C=C/1C [Everolimus]	373	453	393	327	334	494	356	> 500	303	467	464
CN(Cc1cnc2nc(N)nc(N)c2n1)c1ccc(C(=O)N[C@@H](CCC(=O)O)C(=O)O)cc1 [Methotrexate]	429	294	381	274	451	334	452	366	483	382	345
C#Cc1cccc(Nc2ncnc3cc4c(cc23)OCCOCCOCCO4)c1 [Icotinib]	376	474	497	406	487	465	> 500	442	474	495	464
Cn1ncnc1[C@H]1c2n[nH]c(=O)c3cc(F)cc(c23)N[C@@H]1c1ccc(F)cc1 [Talazoparib]	367	392	399	328	383	486	444	403	341	438	439
c1cn2cc(-c3ccc4cn[nH]c4c3)nc(Nc3ccc(N4CCOCC4)cc3)c2n1 [Entospletinib]	462	481	486	> 500	> 500	480	496	490	473	480	480
CO[C@@H]1[C@H](N(C)C(=O)c2ccccc2)C[C@H]2O[C@]1(C)n1c3ccccc3c3c4c(c5c6ccccc6n2c5c31)C(=O)NC4 [Midostaurin]	372	365	427	335	364	442	417	> 500	338	454	431
COc1cc(Nc2ncc3c(n2)-c2ccc(Cl)cc2C(c2c(F)cccc2OC)=NC3)ccc1C(=O)O [Alisertib]	325	369	381	310	339	494	382	436	328	473	416
CN(C)C/C=C/C(=O)Nc1ccc(C(=O)N2CCC[C@@H](Nc3ncc(Cl)c(-c4c[nH]c5ccccc45)n3)C2)cc1 [THZ531]	332	367	360	376	374	332	320	336	263	344	340
Oc1nc(-c2ccc(C(F)(F)F)cc2)nc2c1CSCC2 [XAV-939]	456	486	486	477	> 500	> 500	491	> 500	496	490	> 500
CCC(CC)(NC(=O)C(C)C)C(=O)N[C@@H](CCCN=C(N)N)C(=O)NC1(C(=O)NC(c2ccc(F)cc2)c2ccc(F)cc2)CCCC1 [MM102]	445	497	> 500	482	> 500	486	464	493	> 500	> 500	485
CCCS(=O)(=O)Nc1ccc(F)c(C(=O)c2c[nH]c3ncc(-c4ccc(Cl)cc4)cc23)c1F [Vemurafenib]	395	498	475	440	496	499	447	499	490	495	490
Cc1nc(Nc2ncc(C(=O)Nc3c(C)cccc3Cl)s2)cc(N2CCN(CCO)CC2)n1 [Dasatinib]	473	458	397	379	463	488	461	488	315	473	479
CC(C)NC[C@@H](C(=O)N1CCN(c2ncnc3c2[C@H](C)C[C@H]3O)CC1)c1ccc(Cl)cc1 [Ipatasertib]	433	496	456	442	437	495	433	483	436	434	445
CC(=O)O[C@@]12CO[C@@H]1C[C@H](O)[C@@]1(C)C(=O)[C@H](O)C3=C(C)[C@@H](OC(=O)[C@H](O)[C@@H](NC(=O)OC(C)(C)C)c4ccccc4)C[C@@](O)([C@@H](OC(=O)c4ccccc4)[C@H]21)C3(C)C [Docetaxel]	134	195	179	171	175	255	248	267	101	401	203
CCN(c1cc(-c2ccc(CN3CCOCC3)cc2)cc(C(=O)NCc2c(C)cc(C)[nH]c2=O)c1C)C1CCOCC1 [Tazemetostat]	448	473	479	360	415	482	481	475	461	> 500	473
CC1(C)CCC(c2ccc(Cl)cc2)=C(CN2CCN(c3ccc(C(=O)NS(=O)(=O)c4ccc(N[C@H](CCN5CCOCC5)CSc5ccccc5)c(S(=O)(=O)C(F)(F)F)c4)cc3)CC2)C1 [Navitoclax]	335	425	414	409	423	433	423	421	326	321	423

Compound	area under the viability dose-response curve (10F2)	area under the viability dose-response curve (135F2)	area under the viability dose-response curve (13E)	area under the viability dose-response curve (13F2)	area under the viability dose-response curve (17E)	area under the viability dose-response curve (17F1)	area under the viability dose-response curve (22E)	area under the viability dose-response curve (27F1)	area under the viability dose-response curve (3E)	area under the viability dose-response curve (8F1)	area under the viability dose-response curve (96F1)
Nc1ncn([C@H]2C[C@H](O)[C@@H](CO)O2)c(=O)n1 [Decitabine (Guadecitabine)]	375	440	485	392	461	466	477	487	453	478	455
CC1=C(/C=C/C(C)=C/C=C/C(C)=C/C(=O)Nc2ccc(O)cc2)C(C)(C)CCC1 [Fenretinide]	418	430	446	469	426	443	418	484	386	470	430
CCn1c(-c2nonc2N)nc2cnc(Oc3cccc(NC(=O)c4ccc(OCCN5CCOCC5)cc4)c3)cc21	348	441	478	392	450	451	468	481	493	467	469
O=c1cc(CN2CCOCC2)occ1OCCCCCSc1ccnc2cc(C(F)(F)F)ccc12 [EHT 1864]	375	475	481	456	454	477	490	490	371	468	488
NC1(c2ccc(-c3nc4ccn5c(=O)[nH]nc5c4cc3-c3ccccc3)cc2)CCC1 [MK-2206]	445	462	415	395	377	473	440	459	371	431	427
COc1ncc(-c2nc3c(n2C(C)C)[C@H](c2ccc(Cl)cc2)N(c2cc(Cl)cn(C)c2=O)C3=O)c(OC)n1 [Siremadlin]	200	328	383	246	318	395	414	359	306	373	385
CN[C@@H](C)C(=O)N[C@H]1CN(C(=O)CC(C)C)CC[C@H]2CC[C@@H](C(=O)NC(c3ccccc3)c3ccccc3)N2C1=O [Xevinapant]	445	> 500	484	498	454	489	301	> 500	351	496	> 500
Cc1[nH]c2ccccc2c1CCNCc1ccc(/C=C/C(=O)NO)cc1 [Panobinostat]	166	248	294	220	218	271	319	296	210	325	290
C[C@H]1Oc2cc(cnc2N)-c2c(nn(C)c2C#N)CN(C)C(=O)c2ccc(F)cc21 [Lorlatinib]	435	498	450	448	416	481	471	471	459	476	463
C[C@@H](NC(=O)c1ncnc(N)c1Cl)c1ncc(C(=O)Nc2cc(C(F)(F)F)c(Cl)cn2)s1 [TAK-580]	433	449	> 500	485	> 500	> 500	> 500	> 500	> 500	> 500	> 500
O=C(NOC[C@H](O)CO)c1ccc(F)c(F)c1Nc1ccc(I)cc1F	262	376	490	325	471	480	481	447	488	> 500	461
CN(C)/N=N/c1[nH]cnc1C(N)=O [Dacarbazine]	> 500	496	> 500	487	> 500	486	> 500	494	> 500	> 500	491
O=C(NC1CCNCC1)c1n[nH]cc1NC(=O)c1c(Cl)cccc1Cl [AT7519]	378	396	348	361	406	381	371	456	332	381	387
CNCc1ccc(-c2[nH]c3cc(F)cc4c3c2CCNC4=O)cc1 [Rucaparib]	446	452	484	458	489	489	475	> 500	490	476	> 500
CCNC(=O)C[C@@H]1N=C(c2ccc(Cl)cc2)c2cc(OC)ccc2-n2c(C)nnc21 [Molibresib]	386	417	468	389	400	477	442	498	378	465	497
CC[C@H](NC(=O)[C@H](C)NC)C(=O)N1C[C@@H](O)C[C@H]1Cc1c(-c2[nH]c3cc(F)ccc3c2C[C@@H]2C[C@H](O)CN2C(=O)[C@H](CC)NC(=O)[C@H](C)NC)[nH]c2cc(F)ccc12 [Birinapant]	425	483	473	483	434	467	204	> 500	237	468	480
